From patent US11345707B2, “Atropisomerism for increased kinase inhibitor selectivity” (SAN DIEGO STATE UNIVERSITY RESEARCH FOUNDATION, priority 2015, dated 2022) come the findings set out here.

Data set [1] in a line: Experimental measurement of the barriers to rotation (racemization followed by chiral HPLC). Format: physicochemical. The procedure:
The enantiomerically enriched analogues were then dissolved in ethanol and placed in a sealed 2-dram vial and heated under constant temperature on an aluminum block. At each time point, an aliquot of the mixture was removed and quenched in an HPLC vial containing ice cold 80:20 hexanes:ethanol. […] The timepoint and enantiomeric excess (ee) data was then plotted in order to determine an observed rate constant, kobs, at the corresponding temperature. The barrier to rotation was then calculated using the relationship of kracemization=2*kenantiomerization and then substituted into the Gibbs Free Energy Equation:
[formula] where h=Planck Constant, kb=Boltzmann Constant, T=Temp. (K), R=Gas Constant.

Data set [2] has as its system panel of tyrosine kinases. The experiment in a line: Kinase inhibitor profiling across a panel of tyrosine kinases (Z′-LYTE), selectivity score. It is filed as biochemical. The procedure: To analyze each analog's selectivity across the panel we turned to selectivity scores (Davis et al., Nat. Biotechnol. 2011, 29, 1046-51), simply the number of kinases inhibited above a certain threshold divided by the number of kinases evaluated. […] For example at 1000 nM 2e-(R) yielded an S(40%) of 0.11 while 2e-(S) gave an S(40%) of 0.16. […] Differences in selectivity between 2e-(R) and 2e-(S) at 5000 nM (4.5 times the IC50 of 2e-(S) toward Src) and for 5 at 1000 nM (6.25 times the IC50 of 5 toward Src) can be viewed graphically across tyrosine kinases (FIG. 3). Importantly, similar trends were also observed across each of the atropisomeric series tested.
All samples were sent out to Life Technologies to obtain kinase inhibition data. A brief description of the assays and analyses are included below.
Assay Theory (SelectScreen® Kinase Profiling Services (Life Technologies, Madison, Wis. USA). The Z′-LYTE® biochemical assay employs a fluorescence-based, coupled-enzyme format and is based on the differential sensitivity of phosphorylated and non-phosphorylated peptides to proteolytic cleavage. The peptide substrate is labeled with two fluorophores—one at each end—that make up a FRET pair.
In the primary reaction, the kinase transfers the gamma-phosphate of ATP to a single tyrosine, serine or threonine residue in a synthetic FRET-peptide. In the secondary reaction, a site-specific protease recognizes and cleaves non-phosphorylated FRET-peptides. Phosphorylation of FRET-peptides suppresses cleavage by the Development Reagent. Cleavage disrupts FRET between the donor (i.e., coumarin) and acceptor (i.e., fluorescein) fluorophores on the FRET-peptide, whereas uncleaved, phosphorylated FRET-peptides maintain FRET. A ratiometric method, which calculates the ratio (the Emission Ratio) of donor emission to acceptor emission after excitation of the donor fluorophore at 400 nm, is used to quantitate reaction progress, as shown in the equation below: […]
A significant benefit of this ratiometric method for quantitating reaction progress is the elimination of well-to-well variations in FRET-peptide concentration and signal intensities. As a result, the assay yields very high Z′-factor values (>0.7) at a low percent phosphorylation. Both cleaved and uncleaved FRET-peptides contribute to the fluorescence signals and therefore to the Emission Ratio. The extent of phosphorylation of the FRET-peptide can be calculated from the Emission Ratio. The Emission Ratio will remain low 1f the FRET-peptide is phosphorylated (i.e., no kinase inhibition) and will be high 1f the FRET-peptide is non-phosphorylated (i.e., kinase inhibition).
Both cleaved and uncleaved FRET-peptides contribute to the fluorescence signals and therefore to the Emission Ratio. The extent of phosphorylation of the FRET-peptide can be calculated from the Emission Ratio. The Emission Ratio will remain low 1f the FRET-peptide is phosphorylated (i.e., no kinase inhibition) and will be high 1f the FRET-peptide is non-phosphorylated (i.e., kinase inhibition).

Regarding `COc1ccc(Cl)c(-c2c(Cl)n(C3CCCC3)c3ncnc(N)c23)c1` (racemic) [Compound 1e, 6-chloro-5-(2-chloro-5-methoxyphenyl)-7-cyclopentyl-7H-pyrrolo[2,3-d]pyrimidin-4-amine], the “t1/2 to Racemization at 37° C.” value in data set [1] was determined as 18 days.

Consider `COc1ccc(Cl)c(-c2c(Cl)n(C(C)(C)C)c3ncnc(N)c23)c1` (single isomer, unassigned) [2e-(R), 7-(tert-butyl)-6-chloro-5-(2-chloro-5-methoxyphenyl)-7H-pyrrolo[2,3-d]pyrimidin-4-amine], for which the results for the “S(40%): number of kinases inhibited greater than 40% divided by number of kinases tested (including Src)” value in data set [2] (1000 nM) and in data set [2] (5000 nM) were 0.11 and 0.44, respectively.

For `COc1ccc(Cl)c(-c2c(Cl)n(C(C)(C)C)c3ncnc(N)c23)c1` (single isomer, unassigned) [2e-(S), 7-(tert-butyl)-6-chloro-5-(2-chloro-5-methoxyphenyl)-7H-pyrrolo[2,3-d]pyrimidin-4-amine], the “S(40%): number of kinases inhibited greater than 40% divided by number of kinases tested (including Src)” value stood at 0.16 in data set [2] (1000 nM) and 0.61 in data set [2] (5000 nM).

On to `COc1cccc(-c2cn(C(C)(C)C)c3ncnc(N)c23)c1` [Compound 5, reference compound], for which the “S(40%): number of kinases inhibited greater than 40% divided by number of kinases tested (including Src)” value is reported as 0.44 in data set [2] (200 nM) and 0.72 in data set [2] (1000 nM). Moreover, the “activity for the tyrosine kinase panel tested” value in data set [2] (200 nM and 1000 nM) was “near pan activity”.
